Consider 6 compounds from US20230390240A1, “METHODS OF TREATMENT” (Board of Supervisors of Louisiana State University and …, priority 2020, published 2023).

Test [1] deals with T1, RPE65 isomerase (Homo sapiens, UniProt Q16518).
T1 sequence (Q16518 1-533): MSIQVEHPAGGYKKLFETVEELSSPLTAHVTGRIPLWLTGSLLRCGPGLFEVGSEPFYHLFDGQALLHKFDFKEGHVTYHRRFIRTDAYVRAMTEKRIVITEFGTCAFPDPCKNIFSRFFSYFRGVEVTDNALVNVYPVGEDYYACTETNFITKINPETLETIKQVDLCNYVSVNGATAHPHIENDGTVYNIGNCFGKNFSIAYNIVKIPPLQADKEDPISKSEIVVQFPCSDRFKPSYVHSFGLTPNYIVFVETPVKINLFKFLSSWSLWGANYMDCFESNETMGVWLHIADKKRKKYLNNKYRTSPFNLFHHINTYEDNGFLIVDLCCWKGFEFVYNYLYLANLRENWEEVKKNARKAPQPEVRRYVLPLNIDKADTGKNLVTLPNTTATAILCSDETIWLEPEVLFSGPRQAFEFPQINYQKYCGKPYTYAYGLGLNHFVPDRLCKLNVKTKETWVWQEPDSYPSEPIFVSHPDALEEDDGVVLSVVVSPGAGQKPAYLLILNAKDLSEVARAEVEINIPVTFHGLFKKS
The following applies: in vitro; cited from earlier work.

Test [2] relates to fatty acid transport protein 4 (FATP4). Description: Immunoblot analysis of FATP4 in the RPE of mice treated daily with drug. The class given is in vivo, mouse. To be noted: one-month-old mice treated daily, oral; Ezetimibe 10 mg/kg, Simvastatin 30 mg/kg; vs DMSO. (A western blot detects proteins with antibodies after separation by electrophoresis.)
Source text: Actin was detected as the loading control.
The subject of test [3] is FATP4 in intestinal cells. To be noted: animal studies; cited from earlier work.
For test [4], the system named is S-opsin in retinal explants. Description: Protease inhibitor assay: immunoblot of S-opsin in retinal explants. Format: cell-based, mouse. The following applies: 5 hours. The text has this: OS, outer segments; ONL, Outer nuclear layer; OPL, outer plexiform layer. Scale bar, 20-μm. (B) Percentage of Sopsin mislocalization estimated by dividing S-opsin immunofluorescence in the OPL by the sum of immunofluorescence in the OPL and OS. Note the decrease in S-opsin mislocalization in KI;Fatp4^−/− mice. (C,D) Immunoblot analysis of S-opsin in retinal explants treated with the indicated concentrations of MG132 (C) or pepstatin A (D). DMSO was used in the MG132 and pepstatin A null controls. Histograms show relative immunoblot intensities of S-opsin in MG132-treated and pepstatin A-treated retinas versus DMSO-treated controls. (E) Representative immunoblot analysis of M-opsin in Triton X-100 (Tx)-soluble and -insoluble retinal fractions separated by ultracentrifugation (right panel). […] (F) Percentages of Tx-soluble and -insoluble Mopsin in WT, KI, and KI;Fatp4^−/− mice are estimated from the immunoblot intensities in (E).
Immunoblot analysis Protein samples were separated by SDS-PAGE and transferred to an Immobilon-P membrane. The membrane was incubated in blocking buffer, primary antibody, and horseradish peroxidase-conjugated anti-rabbit or mouse IgG secondary antibody. Antibodies against RPE65 (63), LRAT (64, 65), FATP4 (66), β-actin, rhodopsin, M-opsin (MilliporeSigma Co.), S-opsin (Santa Cruz Biotechnology) were used as the primary antibodies. Immunoblots were visualized with the ECL Prime Western blotting detection reagent and ImageQuant LAS 4000 (48). Signal intensity of each band was quantified using ImageQuant TL software.
Protease inhibitor assay Eyes were enucleated from euthanized 4-week-old mice, and the corneas and lenses were removed. The neural retinas dissected from the eyecups were maintained in the DMEM-F12 medium (Thermo Fisher Scientific Inc.) supplemented with 10% fetal bovine serum and antibiotics in a 5% CO2 incubator at 37° C. After incubating for 5 hours in the presence of a series of increasing concentrations of MG132 (0˜25 μM) or pepstatin A (0˜30 μM), the retinas were subjected to immunoblot analysis.

The target of test [5] is T2, mutated RPE65 (R91W KI mice) (Mus musculus, UniProt Q91ZQ5, R91W).
T2 construct: host or cells: R91W knock-in (KI) mice
T2 sequence (Q91ZQ5 1-533 R91W): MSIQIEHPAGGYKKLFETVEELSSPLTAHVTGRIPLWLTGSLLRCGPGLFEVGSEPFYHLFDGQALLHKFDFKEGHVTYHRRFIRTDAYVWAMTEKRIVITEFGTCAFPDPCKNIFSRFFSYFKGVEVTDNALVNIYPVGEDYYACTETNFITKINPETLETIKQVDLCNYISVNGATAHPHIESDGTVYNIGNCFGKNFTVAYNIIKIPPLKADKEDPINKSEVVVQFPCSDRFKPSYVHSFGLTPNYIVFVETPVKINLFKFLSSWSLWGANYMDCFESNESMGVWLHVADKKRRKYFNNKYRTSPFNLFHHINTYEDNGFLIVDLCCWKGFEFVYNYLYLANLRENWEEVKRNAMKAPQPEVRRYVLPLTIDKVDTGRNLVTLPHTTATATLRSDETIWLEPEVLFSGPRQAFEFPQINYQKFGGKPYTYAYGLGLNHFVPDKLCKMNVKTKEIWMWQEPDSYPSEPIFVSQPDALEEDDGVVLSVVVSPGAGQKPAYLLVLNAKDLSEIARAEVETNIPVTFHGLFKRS
The following applies: cited from earlier work.

Peptide text beside a SMILES is read from it. * marks the point of attachment. Cbz = O=C(OCc1ccccc1)*

As to `CCCCCCCCCCCCCCCCCCCCCCCC(=O)SCCNC(=O)CCNC(=O)[C@H](O)C(C)(C)COP(=O)(O)OP(=O)(O)OC[C@H]1O[C@@H](n2cnc3c(N)ncnc32)[C@H](O)[C@@H]1OP(=O)(O)O` [lignoceroyl (C24:0)-CoA], in test [1], the “synthesis of 11-cis-retinol (11cROL)” value was “inhibited the synthesis”.
As for `O=C1[C@H](CC[C@H](O)c2ccc(F)cc2)[C@@H](c2ccc(O)cc2)N1c1ccc(F)cc1` [Ezetimibe], the “expression levels of FATP4 in the retinal pigment epithelium (RPE)” value in test [2] is “reduced expression levels”. For the same compound, in test [3], the “expression of FATP4 in intestinal cells” value is reported as “markedly reduced expression of FATP4”.
`CC(C)C[C@@H](C=O)NC(=O)[C@H](CC(C)C)NC(=O)[C@H](CC(C)C)NC(=O)OCc1ccccc1` [MG132] (Cbz-Leu-Leu-Leu-aldehyde): the “relative amount of S-opsin, increase vs DMSO-treated retinas” value in test [4] (KI retinas, MG132 (0~25 μM)) is on record as 3 fold; in test [4] (KI;Fatp4−/− retinas, MG132 (0~25 μM)), 1.6 fold.
pepstatin A: the “relative amount of S-opsin, increase vs DMSO-treated retinas” value in test [4] (KI retinas, pepstatin A (0~30 μM)) is ~55%; in test [4] (KI;Fatp4−/− retinas, pepstatin A (0~30 μM)) it was ~43%.
For `CCCCCCCCCCCCCCCC(=O)SCCNC(=O)CCNC(=O)[C@H](O)C(C)(C)COP(=O)(O)OP(=O)(O)OC[C@H]1O[C@@H](n2cnc3c(N)ncnc32)[C@H](O)[C@@H]1OP(=O)(O)O` [palmitoyl (C16:0)-CoA], in test [1], the “synthesis of 11-cis-retinol (11cROL)” value is “promoted the synthesis”.
On to `O=C(O)CCCc1ccccc1` [4-phenylbutyrate], for which, in test [5] (KI mice), the “elevation of 11cRAL” value is given as 96%. Also, the “function of mutated RPE65; preservation of photoreceptors and vision” value in test [5] (systemic administration, mouse model of LCA) is given as “could partially rescue the function of mutated RPE65”.
